According to ChEMBL document CHEMBL3603792, “The discovery of oxazolones-grafted spirooxindoles via three-component diversity oriented synthesis and their preliminary biological evaluation” (Bioorg Med Chem Lett, 2015):
The source made the active and inactive calls. The rule behind the calls is not given here.

Legend:
[1] = system: A549; assay: Cytotoxicity against human A549 cells assessed as inhibition of cell growth at 10 ug/ml incubated for 48 hrs by MTT assay; assay type: functional, cell-based
[2] = system: K562; assay: Cytotoxicity against human K562 cells assessed as inhibition of cell growth at 10 ug/ml incubated for 48 hrs by MTT assay; assay type: functional, cell-based
[3] = system: A-375; assay: Cytotoxicity against human A375 cells assessed as inhibition of cell growth at 10 ug/ml incubated for 48 hrs by MTT assay; assay type: functional, cell-based
[4] = system: MCF7; assay: Cytotoxicity against human MCF7 cells assessed as inhibition of cell growth at 10 ug/ml incubated for 48 hrs by MTT assay; assay type: functional, cell-based
[5] = system: HepG2; assay: Cytotoxicity against human HepG2 cells assessed as inhibition of cell growth at 10 ug/ml incubated for 48 hrs by MTT assay; assay type: functional, cell-based
[6] = system: PANC-1; assay: Cytotoxicity against human PANC1 cells assessed as inhibition of cell growth at 10 ug/ml incubated for 48 hrs by MTT assay; assay type: functional, cell-based
[7] = system: SK-OV-3; assay: Cytotoxicity against human SKOV3 cells assessed as inhibition of cell growth at 10 ug/ml incubated for 48 hrs by MTT assay; assay type: functional, cell-based
[8] = system: HeLa; assay: Cytotoxicity against human HeLa cells assessed as inhibition of cell growth at 10 ug/ml incubated for 48 hrs by MTT assay; assay type: functional, cell-based
[9] = system: HepG2; assay: cells; assay type: functional, cell-based; settings: Homo sapiens, HepG2, 48 h
Description: Cytotoxicity against human HepG2 cells assessed as inhibition of cell growth incubated for 48 hrs by MTT assay

[10] = cells; assay type: functional, cell-based; settings: Homo sapiens, HCCC9810, 48 h
Description: Cytotoxicity against human HCCC9810 cells assessed as inhibition of cell growth incubated for 48 hrs by MTT assay

[11] = cells; assay type: functional, cell-based; settings: Homo sapiens, Huh-7, 48 h
Description: Cytotoxicity against human HuH7 cells assessed as inhibition of cell growth incubated for 48 hrs by MTT assay

[12] = system: MCF7; assay: cells; assay type: functional, cell-based; settings: Homo sapiens, MCF7, 48 h
Description: Cytotoxicity against human MCF7 cells assessed as inhibition of cell growth incubated for 48 hrs by MTT assay

[13] = system: MDA-MB-468; assay: cells; assay type: functional, cell-based; settings: Homo sapiens, MDA-MB-468, 48 h
Description: Cytotoxicity against human MDA-MB-468 cells assessed as inhibition of cell growth incubated for 48 hrs by MTT assay

[14] = system: MDA-MB-231; assay: cells; assay type: functional, cell-based; settings: Homo sapiens, MDA-MB-231, 48 h
Description: Cytotoxicity against human MDA-MB-231 cells assessed as inhibition of cell growth incubated for 48 hrs by MTT assay

[15] = system: MCF7; assay: Induction of apoptosis in human MCF7 cells at 50 uM incubated for 24 hrs by Hoechst 33342 staining; assay type: functional, cell-based
[16] = system: HeLa; assay: Induction of apoptosis in human HeLa cells incubated for 24 hrs by Annexin V-FITC/PI staining based flow cytometry (reference value: 3.37%); assay type: functional
[17] = system: MCF7; assay: Induction of apoptosis in human MCF7 cells assessed as increase in PARP cleavage incubated for 24 hrs by Western blotting method; assay type: functional, cell-based
[18] = system: HeLa; assay: Induction of apoptosis in human HeLa cells incubated for 12 hrs by Annexin V-FITC/PI staining based flow cytometry (reference value: 3.37%); assay type: functional

Row | Structure (SMILES) | growth inhibition (GI) [1] | growth inhibition (GI) [2] | growth inhibition (GI) [3] | growth inhibition (GI) [4] | growth inhibition (GI) [5] | growth inhibition (GI) [6] | growth inhibition (GI) [7] | growth inhibition (GI) [8] | IC50 [9] [µM] | IC50 [10] [µM] | IC50 [11] [µM] | IC50 [12] [µM] | IC50 [13] [µM] | IC50 [14] [µM] | Activity [15] | Activity [16] [%] | Activity [17] | Activity [18] [%]
1 | CN1C[C@@H](c2ccco2)[C@@]2(N=C(c3ccccc3)OC2=O)[C@@]12C(=O)N(Cc1ccccc1)c1ccccc12 | Active | Active | Active | Active | Active | Active | Active | Active |  |  |  |  |  |  |  |  |  | 
2 | O=C1OC(c2ccccc2)=N[C@@]12[C@H](c1ccc(Cl)c(Cl)c1)[C@H]1CCCN1[C@]21C(=O)Nc2ccccc21 | Active | Active | Active | Active | Active | Active | Active | Active |  |  |  |  |  |  |  |  |  | 
3 | O=C1OC(c2ccccc2)=N[C@@]12[C@H](c1ccccc1)[C@H]1CSCN1[C@]21C(=O)Nc2ccccc21 | Active | Active | Active | Active | Active | Active | Active | Active |  |  |  |  |  |  |  |  |  | 
4 | CN1C[C@@H](c2ccccc2)[C@@]2(N=C(c3ccccc3)OC2=O)[C@@]12C(=O)Nc1ccccc12 | Active | Active | Active | Active | Active | Active | Active | Active |  |  |  |  |  |  |  |  |  | 
5 | O=C1OC(c2ccccc2)=N[C@@]12[C@H](c1cccc(Cl)c1)[C@H]1CCCN1[C@]21C(=O)Nc2ccccc21 | Active | Active | Active | Active | Active | Active | Active | Active |  |  |  |  |  |  |  |  |  | 
6 | CNC(=O)c1cc(Oc2ccc(NC(=O)Nc3ccc(Cl)c(C(F)(F)F)c3)cc2)ccn1 [SORAFENIB] |  |  |  |  |  |  |  |  | 6.7 | > 10 | 7.1 | 5.5 | 4.9 | 5.1 |  |  |  | 
7 | O=C1OC(c2ccccc2)=N[C@@]12[C@H](c1ccccc1)[C@H]1CCCN1[C@]21C(=O)N(Cc2ccccc2)c2ccccc21 | Active | Active | Active | Active | Active | Active | Active | Active |  |  |  |  |  |  |  |  |  | 
8 | CN1C[C@@H](c2ccc(Cl)c(Cl)c2)[C@@]2(N=C(c3ccccc3)OC2=O)[C@@]12C(=O)N(Cc1ccccc1)c1ccccc12 | Active | Active | Active | Active | Active | Active | Active | Active |  |  |  |  |  |  |  |  |  | 
9 | O=C1OC(c2ccccc2)=N[C@@]12[C@H](c1ccccc1)CN[C@]21C(=O)Nc2ccccc21 | Active | Active | Active | Active | Active | Active | Active | Active |  |  |  |  |  |  |  |  |  | 
10 | CN1C[C@@H](c2ccccc2)[C@@]2(N=C(c3ccccc3)OC2=O)[C@@]12C(=O)N(Cc1ccccc1)c1ccccc12 | Active | Active | Active | Active | Active | Active | Active | Active |  |  |  |  |  |  |  |  |  | 
11 | COc1cc([C@@H]2[C@H]3CCCN3[C@]3(C(=O)N(Cc4ccccc4)c4ccccc43)[C@]23N=C(c2ccccc2)OC3=O)cc(OC)c1OC | Active | Active | Active | Active | Active | Active | Active | Active |  |  |  |  |  |  |  |  |  | 
12 | O=C1OC(c2ccccc2)=N[C@@]12[C@H](c1cccc(Cl)c1)[C@H]1CCCN1[C@]21C(=O)Nc2ccc(Cl)cc21 | Active | Active | Active | Active | Active | Active | Active | Active |  |  |  |  |  |  |  |  |  | 
13 | CN1C(=O)[C@@]2(c3ccccc31)N(C)C[C@@H](c1cccc(Cl)c1)[C@@]21N=C(c2ccccc2)OC1=O | Active | Active | Active | Active | Active | Active | Active | Active |  |  |  |  |  |  |  |  |  | 
14 | O=C1OC(c2ccccc2)=N[C@@]12[C@H](c1ccc(C(F)(F)F)cc1)[C@H]1CCCN1[C@]21C(=O)Nc2ccccc21 | Active | Active | Active | Active | Active | Active | Active | Active | 8.7 | 7.2 | 7.9 | 8.1 | 3.4 | 4.2 | Active | 44.64 | Active | 16.17
15 | O=C1OC(c2ccccc2)=N[C@@]12[C@H](c1ccc(Cl)c(Cl)c1)[C@H]1CCCN1[C@]21C(=O)N(Cc2ccccc2)c2ccccc21 | Active | Active | Active | Active | Active | Active | Active | Active |  |  |  |  |  |  |  |  |  | 
16 | O=C1OC(c2ccccc2)=N[C@@]12[C@H](c1ccccc1)[C@H]1CCCN1[C@]21C(=O)Nc2ccccc21 | Active | Active | Active | Active | Active | Active | Active | Active |  |  |  |  |  |  |  |  |  | 
